Results on 136 molecules are retold here after the OPERA property sets (Mansouri et al. 2018).

Peptide text beside a SMILES is read from it.

`CCNC(=O)NO`: the logP was -0.76.
For the molecule `O=C1C=C(Cl)C(=O)c2ccccc21`, the lipophilicity (logP) turned out to be 2.29.
The value for `CCOC(=O)[C@H](O)[C@@H](O)C(=O)OCC` was -0.29; that for `C=C1C(=O)OC2C1CCC(C)C1C=CC(=O)C12C` (stereo unspecified) was 1.03; that for `Nc1ccc(S(=O)(=O)Nc2nccs2)cc1` was 0.05.
The value for `Nc1c(S(=O)(=O)O)ccc2ccccc12` was -0.97; that for `CCOC(=O)C(=Cc1ccc(OC)cc1)C(C)=O` was 2.46; that for `COC(=O)c1ccccc1N` was 1.88.
The molecule `CCc1ccc(C(=O)OCCN(C)C)cc1` yielded a logP of 3.15.
The value for `OCCN1CCN(CCCC2c3ccc(F)cc3Sc3ccc(C(F)(F)F)cc32)CC1` (stereo unspecified) was 4.47; that for `CC(=O)[C@@]1(O)CC[C@H]2[C@@H]3CCC4=CC(=O)CC[C@]4(C)[C@H]3CC[C@@]21C` was 3.17; that for `O=CNc1ccc2[nH]ccc2c1` was 1.07.
The value for `CC(=O)Oc1ccccc1C(F)(F)F` was 2.59; that for `COc1ccc(C(C)=O)c(OC)c1OC` was 1.63.
The value for `CCSC` was 1.54; that for `COc1ccc2[nH]ccc2c1` was 2.06.
`Nc1ccccc1S` had a log partition coefficient (logP) of 1.43.
The value for `CN(C)Cc1ccccc1` was 1.98.
`O=C(OCCc1ccccc1)c1ccccc1`: the lipophilicity (logP) is 4.01.
The value for `Nc1ccc(S(=O)(=O)Nc2ccccc2Cl)cc1` was 2.
Consider `O=C(NC(CO)C(O)c1ccc([N+](=O)[O-])cc1)C(Br)(Br)Br` (stereo unspecified), for which the logP was determined as 2.17.
Turning to `O=C(Cn1c(=O)sc2ccc(Cl)cc21)N1CCN(CCO)CC1`, the logP turned out to be 1.04.
Regarding `Nc1ccccc1C(F)(F)F`, the log partition coefficient (logP) was determined as 2.41.
The value for `CCCCC(CC)CN` (stereo unspecified) was 2.82; that for `CC1(C)S[C@@H]2[C@H](NC(=O)C(C(=O)Oc3ccc4c(c3)CCC4)c3ccccc3)C(=O)N2[C@H]1C(=O)O` (stereo partly specified) was 3.77; that for `OC(O)C(Cl)(Cl)Cl` was 0.99.
The value for `OCC1OC(n2cnc3c(S)ncnc32)C(O)C1O` (stereo unspecified) was -0.6; that for `CCCCF` was 2.58.
The value for `CN(C)C(N(C)C)=S(I)c1ccc(Cl)c(Cl)c1` (stereo unspecified) was 0.49; that for `C=CCC1=C(C)C(OC(=O)C2C(C=C(C)C)C2(C)C)CC1=O` (stereo unspecified) was 4.78.
`C=C1C(=O)OC2C1CCC(C)C1(O)C=CC(=O)C21C` (stereo unspecified) came in with a logP of 0.77.
The value for `NC(=O)Nc1ccc(Br)cc1` was 1.98.
In turn, `CSc1ccccc1N` yielded a logP of 1.2.
The value for `CCNc1nc(NC(C)C(C)C)nc(SC)n1` (stereo unspecified) was 3.9; that for `CN[C@H]1CCc2cc(OC)c(OC)c(OC)c2-c2ccc(OC)c(=O)cc21` was 1.37.
For the molecule `C=CCC(CC=C)(NC(C)=O)C(N)=O`, the logP was 0.05.
The value for `CCCCCCOC(=O)c1cc(O)c(O)c(O)c1` was 3.17; that for `NCCO` was -1.31; that for `c1nnn[nH]1` was -0.6.
Consider `CC1=C(O)C(=O)c2ccccc2C1=O`, for which the logP was 1.2.
For `NC(=O)OCc1ccccc1`, the logP was found to be 1.2.
The value for `CC1CC2OC(=O)C(C)C2C(OC(=O)CC(=O)OC2C3C(CC(C)C4CCC(=O)C42C)OC(=O)C3C)C2(C)C(=O)CCC12` (stereo unspecified) was 0.76; that for `COc1cc(CCO)ccc1O` was 0.47; that for `COc1ccc(S(N)(=O)=O)cc1` was 0.47.
The value for `Nc1ccc(C(=O)Oc2cccc(F)c2)c(O)c1` was 3.42; that for `CCCCOCCCC` was 3.21.
The value for `CC(C)=O` was -0.24; that for `CC=CC(C)=O` was 0.52; that for `COc1ccc(OCC(=O)NNC(C)C)cc1` was 1.21.
`Oc1cc(O)c2ccccc2c1` displayed a log partition coefficient (logP) of 1.97.
The value for `CC(C)COC(=O)c1ccccc1C(=O)OCC(C)C` was 4.11; that for `CCc1ccccc1-c1nc(N)nc(N)n1` was 1.65; that for `CN(C)c1ccc(C=C[N+](=O)[O-])cc1` was 2.67.
The value for `C=C1C(C)C2C(Cc3ccccc3)NC(=O)C23OC(=O)C=CC(O)CCCC(C)CC=CC3C1O` (stereo unspecified) was 3.37; that for `CC(=O)c1c[nH]c2ccccc12` was 2.06; that for `COc1cccc(N)c1` was 0.93.
The value for `O=[N+]([O-])c1ccc(O/N=C/c2cc(Br)c(O)c(Br)c2)c([N+](=O)[O-])c1` was 3.3; that for `CC(C)OC(=O)c1ccccc1C(=O)OC(C)C` was 2.83.
`FC(F)(F)c1nc2c(Cl)cccc2[nH]1` yielded a log partition coefficient (logP) of 2.93.
`NC(=O)c1ccc([N+](=O)[O-])cc1` gave a logP of 0.82.
The value for `COC(=O)C(C)(C)C` was 1.83; that for `O=[N+]([O-])c1nccn1CC(F)CO` (stereo unspecified) was -0.38; that for `CCOC(OCC)OCC` was 1.2.
The molecule `CC[C@H](C)[C@H](NC(=O)[C@@H](NC(C)=O)C(C)C)C(=O)NCC(N)=O` (Ac-Val-Ile-Gly-NH2) returned a logP of -0.45.
In turn, `CCOC(=O)Cc1ccccc1` returned a logP of 2.28.
With `C=CCc1ccccc1`, the logP worked out at 3.23.
For `O=C(O)COc1cccc(-c2ccccc2)c1`, the logP came to 3.18.
The value for `CCO[Si](OCC)(OCC)c1ccccc1` was 2.99.
Molecule `ClC1=C(Cl)C(Cl)(Cl)C(Cl)=C1Cl` registered a logP of 5.04.
The molecule `CCOP(=S)(OCC)Oc1ccc(Cl)cc1Cl` returned a logP of 5.14.
The value for `CC(=O)CF` was -0.39; that for `O=[N+]([O-])c1cc[n+]([O-])c2c(F)cccc12` was 1.
In turn, `O=C(c1ccccc1)c1cccc(NS(=O)(=O)C(F)F)c1` gave a log partition coefficient (logP) of 2.86.
`OCc1ccncc1` yielded a lipophilicity (logP) of 0.06.
With `BrC=CBr`, the log partition coefficient (logP) was determined as 1.76.
The value for `O=C(c1ccccc1)c1ccccc1O` was 3.52; that for `NC1C2CCC1c1ccccc12` (stereo unspecified) was 2.13; that for `Cc1ccc(OC(=O)N(C)C)cc1` was 2.03.
The value for `O=c1[nH]c(=O)n([C@H]2C[C@H](O)[C@@H](CO)O2)cc1C(F)(F)F` was -0.46; that for `CC(=O)Sc1ccccc1` was 2.23; that for `NC(Cc1c[nH]c2cccc(F)c12)C(=O)O` (stereo unspecified) was -1.07.
The value for `CC(=Cc1ccccc1)[N+](=O)[O-]` was 2.52; that for `O=S(=O)(Cc1ccccc1)c1ccccc1` was 2.05.
`COC(=O)CCC(=O)OC` came in with a logP of 0.35.
The value for `COC(=O)c1cccc(O)c1` was 1.89; that for `NCCCCC(=O)O` was -2.63; that for `Cn1c(=O)sc2ccccc21` was 1.98.
For `CC(C)(C)C(O)C(Oc1ccc(-c2ccccc2)cc1)n1cncn1` (stereo unspecified), the log partition coefficient (logP) is 4.16.
In turn, `CCS(=O)(=O)c1ccc(S(N)(=O)=O)c2ccccc12` showed a logP of 1.24.
The value for `O=S(c1ccccc1)c1ccccc1` was 2.06; that for `Nc1ccnc2c([N+](=O)[O-])cccc12` was 1.31.
The molecule `COC(=O)CNC(=O)c1ccccc1` came in with a logP of 0.82.
The molecule `CCCCCCCCC1(c2ccncc2)CCC(=O)NC1=O` (stereo unspecified) displayed a logP of 4.04.
The value for `O=[N+]([O-])C=Cc1ccc(Cl)cc1Cl` was 3.26.
As to `CNC(=O)Oc1cc(C)c(C)cc1C`, the logP is 2.52.
The value for `CCCOC1OC(CO)C(O)C(O)C1O` (stereo unspecified) was -1.66.
The value for `NCCc1c[nH]c2ccccc12` was 1.55; that for `Cc1ccc(C)[nH]1` was 1.47; that for `CCCOP(=O)(OCCC)Oc1ccc(SC)cc1` was 3.67.
The value for `FC(F)(F)c1nc2cc(Cl)c(Cl)cc2[nH]1` was 3.49; that for `C=CCO` was 0.17.
`[O-][n+]1cccc2ccccc21` gave a logP of 0.36.
In turn, `Nc1ccccc1` gave a logP of 0.9.
`O=S(=O)(N=[N+]([O-])c1ccccc1)c1ccccc1`: the logP was determined as 2.87.
Take `CNC1=CC(=O)c2ccccc2C1=O`: the log partition coefficient (logP) stood at 1.74.
The value for `CCOP(=O)(Cc1ccc(-c2nc3ccccc3s2)cc1)N1CCCC1=O` (stereo unspecified) was 3; that for `OCC(O)CO` was -1.76.
In turn, `COc1ccc(C(=O)NN)cc1` yielded a logP of 0.25.
The value for `CN(Cc1cnc2nc(N)nc(N)c2n1)c1c(Cl)cc(C(=O)N[C@@H](CCC(=O)O)C(=O)O)cc1Cl` was -0.1; that for `CCCC(CC(C)=O)C(=O)O` (stereo unspecified) was 1.31; that for `CCOC(=O)C(=Cc1ccccc1F)C(=O)OCC` was 3.04.
The value for `CC(=O)c1cccc(OCC(=O)O)c1` was 0.98; that for `CN(c1ccccn1)S(=O)(=O)c1ccc(N)cc1` was 1.3; that for `C1CCOC1` was 0.46.
The value for `CC(=O)Oc1ccc(C)cc1` was 2.11; that for `CN(C)c1ccc(C(=O)c2ccc(N(C)C)cc2)cc1` was 3.87.
Turning to `O=[N+]([O-])c1ccccc1Br`, the logP is 2.52.
On to `CCN(CC)CCc1cccnc1`, for which the logP is 1.23.
The value for `Cc1ccc(NC=O)cc1` was 1.61; that for `COC1OC(=O)c2ccccc21` (stereo unspecified) was 1.
The value for `Oc1ccc(C2CCCCC2)cc1` was 4.22; that for `CCOC(=O)CNC(=O)CNC(=O)CCCCSc1ncnc2nc[nH]c12` was 0.5; that for `FC(F)(F)c1ccc2cccnc2c1` was 3.02.
The value for `CCOP(=S)(OCC)Oc1ccc(N)cc1` was 2.6.
Molecule `NC(=O)Nc1cccc(Cl)c1` came in with a logP of 1.82.
The molecule `COc1ccc([N+](=O)[O-])cc1N` had a logP of 1.47.
The value for `NS(=O)(=O)c1cccnc1` was -0.49.
`NC(=O)c1ncn2c(=O)n(CCCl)nnc12`: the log partition coefficient (logP) is -0.47.
Regarding `S=C=NCc1ccccc1`, the log partition coefficient (logP) came out at 3.16.
`OCCN1CCN(CCCN2c3ccccc3Sc3ccc(C(F)(F)F)cc32)CC1` registered a logP of 4.36.
Molecule `c1nc[nH]n1` displayed a log partition coefficient (logP) of -0.58.
The value for `O=C(O)c1cccc([N+](=O)[O-])c1` was 1.83; that for `Nc1ccc2nccnc2c1` was 0.9; that for `CCCN(CC)CCC` was 2.68.
The molecule `CCCCNC(=O)Cn1cnc([N+](=O)[O-])n1` gave a log partition coefficient (logP) of 0.89.
The value for `CCOc1ccc2nccnc2c1` was 2.22.

What is called logP is a log measure of how a compound divides between an organic and an aqueous phase. Low values mean a more hydrophilic compound, high ones a more lipophilic compound.
